Assay results taken from US20110289632A1, “METHYLKETONE SYNTHASE, PRODUCTION OF METHYLKETONES IN PLANTS AND BACTERIA” (The Regents of the University of Michigan, priority 2009, published 2011).

How the values were obtained:
E. coli BL21 cells = assay: Headspace SPME GC-MS of E. coli cultures expressing ShMKS2 or SlMKS2; assay type: cell-based, Escherichia coli; conditions: IPTG induction, overnight growth
Procedure: To investigate the biochemical activity of MKS2, the full ORFs of the wild-species allele (ShMKS2) and the cultivated allele (SlMKS2) were amplified and ligated into an E. coli expression vector (see Examples, Materials and Methods). These vectors were introduced into E. coli BL21cells and ShMKS2 or SlMKS2 expression was induced by the addition of IPTG (see Examples, Materials and Methods). After induction and overnight growth, the culture was analyzed by solid-phase microextraction (SPME) of its headspace followed by gas chromatography-mass spectrometry (GC-MS; see Examples, Materials and Methods). The major compound in the headspace of the E. coli cells expressing ShMKS2 was identified as 2TD (FIG. 8A). Lower amounts of 2UD and 2-pentadecanone were also detected, as well as the reduced alcohol forms of 2UD and 2TD (i.e., 2-undecanol and 2-tridecanol). […] The headspace also contained 2-nonanol and 2-undecanol (FIG. 8B). However, the major headspace compound produced by SlMKS2-expressing cells eluted slightly later than 2TD (peak labeled “1” in FIG. 8B, and also present at lower levels in the chromatograph in FIG. 8A).
The sequence of these cDNAs was verified and transferred into the E. coli expression vector pHis9GW following Auldridge et al. (submitted). The pHis9GW vectors carrying ShMKS2 or SlMKS2 were mobilized into E. coli […] cells, and gene expression was induced by the addition of 2 mM IPTG after the culture OD595 value had reached 0.6-0.7. After IPTG addition, ShMKS2- and SlMKS2-expressing bacterial cells were grown at 30° C. or 18° C. overnight.
After induction with IPTG and growth overnight, 1 mL of culture was placed in a glass vial at 42° C. The vial was capped with a screw cap in which a small hole had been bored. The needle of a SPME device was inserted into the vial through the hole in the cap and the fiber extended for 30 min. for volatile collection, after which the fiber was withdrawn and then injected into the GC. […]

E. coli cells = assay: GC-MS of methylketones in spent media of E. coli cells expressing ShMKS1, ShMKS2 or ShMKS2 (D79A); assay type: cell-based, Escherichia coli
Procedure: To test if expression of either ShMKS1 or ShMKS2 (without its transit peptide) in E. coli results in the formation of 3-ketoacids, we collected spent media of bacterial cells expressing each of them (by centrifuging out the cells at the end of the incubation period), heated the spent media at 75° C. for 30 min in the presence of 1 M sulfuric acid, extracted with hexane, then injected the hexane fraction in a GC-MS. […] On the other hand, the spent medium of E. coli cells expressing ShMKS2 contained 5.6±0.32 μg/μL of total methylketones, and the amount of methylketones increased […], to 40.7±2.1 μg/μL, after the spent medium was treated with acid and heat (FIG. 17).
The coding regions of ShMKS1 and ShMKS2 (minus the transit peptide-encoding region) were each amplified by PCR and inserted into the E. coli expression vector pEXP-TOPO-CT (Invitrogen). The expression vectors were introduced into E. coli BL21 Star (DE3) cells, and gene expression was induced by the addition of 0.5 mM IPTG after the culture optical density at 600 nm had reached 0.65. After induction with IPTG and growth at 18° C. overnight, the cells expressing ShMKS1 or ShMKS2 were centrifuged at 5000 rpm for 15 minutes, and 1-mL aliquots of the spent medium were placed in individual vials for further analysis.
Aliquots (1 mL) of the spent medium of E. coli expressing ShMKS2, obtained by centrifuging the culture solution after the incubation time at 5,000 rpm for 15 min and collecting the solution without the cells, were treated in the following ways: 1. Incubated with 40 μl (3 μg) of purified MKS1 in phosphate buffer (12.5 mM NaH2PO4, 125 mM NaCl, 2 mM DTT, pH 6.8) for 2 hrs at 30° C. 3. Incubated at 75° C. for 30 min followed by 30 min at 30° C. 4. Incubated with 1 mL of 2M H2SO4 at 75° C. for 30 min followed by 30 min at 30° C. After the various treatments, 1 mL of hexane containing 5 ng/μL linalool as an internal standard was added and the resulting mixture was vortexed and centrifuged at 5000 rpm for 10 min. Two μL of the resulting extract were injected into the GC-MS for determination of methylketones. GC-MS and product analysis were performed as described by Ben-Israel et al, (2009) Multiple biochemical and morphological factors underlie the production of methylketones in tomato trichomes, Plant Physiology 151: 1952-1964.

[1] = In vitro decarboxylase activity assay; assay type: biochemical; conditions: substrate 3-ketomyristic acid
Procedure: To examine the possible decarboxylase activity of ShMKS1 as well as ShMKS2 in vitro, we tested homogenous recombinant ShMKS1 and partially purified recombinant ShMKS2 proteins (without their transit peptides) for their ability to convert 3-ketomyristic acid into its 2-tridecanone decarboxylated product. […] In steady-state kinetic assays, ShMKS1 was determined to have a KM of 18.4±5.6 μM for 3-ketomyristic acid, with an apparent kcat of 227.9±24.1 min^−1.
A typical decarboxylase assay consisted of a 500 μL reaction solution containing ShMKS1 or ShMKS2 (2.5 μg), 3-ketomyristic acid (0.1 mM), and 1,3-bis(tris(hydroxymethyl)methylamino) propane—Na^+ (20 mM, pH 7.0). For measuring kinetic parameters, substrate concentrations ranged from 5 μM to 75 μM. Assays were performed at 23° C. for 10 min after addition of protein. […] Reaction products (5 μL) were analyzed by a modified procedure, as described in O'Maille et al (2004) A single-vial analytical and quantitative gas chromatography-mass spectrometry assay for terpene synthases. […] Product quantification was performed using total ion monitoring (TIM) mode where all ions in the mass spectrum contribute to the measured response. […] 2-Tridecanone was quantified by integration of peak areas using Enhanced Chemstation (version B.01.00, Agilent Technologies). […]

3-ketomyristoyl-ACP = assay: In vitro thioesterase activity assay; assay type: biochemical; conditions: 2.5 μg protein, 30 min at 23° C., then acid and heat
Procedure: To examine the potential thioesterase activity of ShMKS1 and ShMKS2 in vitro, we added 2.5 μg of each protein to a 500 μL solution of freshly prepared 3-ketomyristoyl-ACP. This protein-linked substrate was prepared using a sequential in vitro enzymatic system involving the addition of multiple starting materials and enzymes and the reaction allowed to proceed for 5 hr (see Examples, Materials, and Methods). Due to the highly unstable nature of 3-ketomyristoyl-ACP, this compound was not further purified but instead the solution in which it was synthesized was used as the “substrate solution” for qualitative in vitro thioesterase activity assays.
Aliquots of this substrate solution were incubated with buffer, ShMKS1, ShMKS2, or both ShMKS1 and ShMKS2 for 30 min at 23° C. […]
3-Ketomyristoyl-ACP was synthesized in a 500 μL reaction volume containing 1,3-bis(tris(hydroxymethyl)methylamino) propane (20 mM, pH 7.0), malonyl-CoA (0.2 mM), lauroyl-CoA (0.2 mM), ShACP (0.1 mM), EcFabD (10 μg) and MtFabH (10 μg). […] Hexane extracts were analyzed by GC-MS as described above. The values for heat-treated samples shown in FIG. 20 were corrected for loss of methylketones during the heating step, as determined by comparisons with standards.

[2] = combined heat and acid treatment
[3] = heated at 75° C. for 30 min, no sulfuric acid

With “SlMKS2: methylketone synthase 2, cultivated tomato S. lycopersicum allele (SEQ ID NO: 3)” the “major compound in the headspace of E. coli cells expressing the enzyme” value (E. coli BL21 cells) was 2-tridecenone and the “two main MK in the headspace” value (E. coli BL21 cells) was 2UD as well as 2-nonanone.

With “ShMKS2: methylketone synthase 2 from Solanum habrochaites glabratum (SEQ ID NO: 4 / 25); thioesterase hydrolyzing 3-ketoacyl-ACPs” the “major compound in the headspace of E. coli cells expressing the enzyme” value (E. coli BL21 cells) was 2TD, the “increase of amount of methylketones after acid and heat treatment” value (E. coli cells; acid and heat treated vs untreated spent medium) was 8 fold and the “total methylketones in spent medium” value (E. coli cells; after spent medium was treated with acid and heat (1 M sulfuric acid, 75° C., 30 min)) was 40.7 ± 2.1 µg/µL. For the same substance, the “2-nonanone in spent medium” value (E. coli cells; [2]) was 0.95 ± 0.04 µg/µL, the “2-nonanone, fold over non-treated control” value (E. coli cells; [2]) was 19.1 fold and the “2-pentadecenone in spent medium” value (E. coli cells; [2]) was 5.69 ± 0.21 µg/µL. For the same substance, the “2-pentadecenone, fold over non-treated control” value (E. coli cells; [2]) was 4.4 fold, the “2-tridecanone in spent medium” value (E. coli cells; [2]) was 11.99 ± 0.51 µg/µL and the “2-tridecanone, fold over non-treated control” value (E. coli cells; [2]) was 4.6 fold. For the same substance, the “2-tridecenone in spent medium” value (E. coli cells; [2]) was 13.04 ± 0.63 µg/µL, the “2-tridecenone, fold over non-treated control” value (E. coli cells; [2]) was 11.8 fold and the “2-undecanone in spent medium” value (E. coli cells; [2]) was 9.33 ± 0.61 µg/µL. The “2-undecanone, fold over non-treated control” value (E. coli cells; [2]) was 18.3 fold, the “2-nonanone, fold over non-treated control” value (E. coli cells; heat only) was 11.9 fold and the “2-pentadecenone, fold over non-treated control” value (E. coli cells; heat only) was 3.0 fold. For the same substance, the “2-tridecanone, fold over non-treated control” value (E. coli cells; heat only) was 3.7 fold, the “2-tridecenone, fold over non-treated control” value (E. coli cells; heat only) was 9 fold and the “2-undecanone, fold over non-treated control” value (E. coli cells; heat only) was 12.2 fold. The “2-nonanone in spent medium” value (E. coli cells; [3]) was 0.60 ± 0.05 µg/µL, the “2-pentadecenone in spent medium” value (E. coli cells; [3]) was 3.94 ± 0.54 µg/µL and the “2-tridecanone in spent medium” value (E. coli cells; [3]) was 9.61 ± 0.27 µg/µL. For the same substance, the “2-tridecenone in spent medium” value (E. coli cells; [3]) was 9.94 ± 0.83 µg/µL, the “2-undecanone in spent medium” value (E. coli cells; [3]) was 6.22 ± 0.34 µg/µL and the “2-nonanone in spent medium” value (E. coli cells; untreated spent medium) was 0.05 µg/µL. The “2-pentadecenone in spent medium” value (E. coli cells; untreated spent medium) was 1.3 µg/µL, the “2-tridecanone in spent medium” value (E. coli cells; untreated spent medium) was 2.6 µg/µL and the “2-tridecenone in spent medium” value (E. coli cells; untreated spent medium) was 1.1 µg/µL. For the same substance, the “2-undecanone in spent medium” value (E. coli cells; untreated spent medium) was 0.51 µg/µL, the “total methylketones in spent medium” value (E. coli cells; untreated spent medium) was 5.6 ± 0.32 µg/µL and the “decarboxylase activity” value [1] was “no decarboxylase activity”. For the same substance, the “amount of 2-tridecanone formed vs buffer-incubated substrate solution treated with acid and heat” value (3-ketomyristoyl-ACP) was “approximately 3 fold”.
